The source of these data is US8492376B2, “Heteroaryl-cyclohexyl-tetraazabenzo[e]azulenes” (Hoffmann-La Roche Inc., priority 2010, dated 2013).

Each structure is given as a SMILES string. Where a name gives a salt, the structure may show the parent alone.

T1 sequence (P37288 whole entry): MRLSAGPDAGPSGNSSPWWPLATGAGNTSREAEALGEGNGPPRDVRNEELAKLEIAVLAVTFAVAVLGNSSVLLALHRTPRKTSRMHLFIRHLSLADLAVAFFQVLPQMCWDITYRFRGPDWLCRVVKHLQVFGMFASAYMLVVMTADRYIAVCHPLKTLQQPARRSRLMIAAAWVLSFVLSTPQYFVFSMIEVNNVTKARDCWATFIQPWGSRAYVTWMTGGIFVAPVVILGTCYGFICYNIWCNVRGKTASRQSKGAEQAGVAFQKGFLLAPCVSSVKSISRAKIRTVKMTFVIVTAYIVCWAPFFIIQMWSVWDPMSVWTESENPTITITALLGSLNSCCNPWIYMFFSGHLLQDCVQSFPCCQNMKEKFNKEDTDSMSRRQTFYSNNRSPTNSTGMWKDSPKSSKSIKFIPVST

This experiment addresses T1, human V1a receptor (Homo sapiens, UniProt P37288).
T1 construct: expressed in transfected cells; host or cells: HEK293 cells, transiently transfected; cell membranes
Description: human V1a receptor binding studies (3H-Vasopressin, SPA beads). Particulars: membranes from HEK293 cells transiently transfected with human V1a receptor, Ki calculated from IC50 by the Cheng-Prussoff equation, read-out: pKi (hV1a) (converted). The protocol: The human V1a receptor was cloned by RT-PCR from total human liver RNA. The coding sequence was subcloned in an expression vector after sequencing to confirm the identity of the amplified sequence. […] Cell membranes were prepared from HEK293 cells transiently transfected with the expression vector and grown in 20 liter fermenters with the following protocol.
50 g of cells are resuspended in 30 ml freshly prepared ice cold Lyses buffer (50 mM HEPES, 1 mM EDTA, 10 mM magnesium dichloride adjusted to pH=7.4+complete cocktail of protease inhibitor (Roche Diagnostics)). Homogenized with Polytron for 1 min and solicited on ice for 2×2 minutes at 80% intensity (Vibrate solicitor). The preparation is centrifuged 20 min at 500 g at 4° C., the pellet is discarded and the supernatant centrifuged 1 hour at 43′000 g at 4° C. (19′000 rpm). The pellet is resuspended in 12.5 ml Lyses buffer+12.5 ml sucrose 20% and homogenized using a Polytron for 1-2 min. The protein concentration is determined by the Bradford method and aliquots are stored at −80° C. until use. For binding studies 60 mg Yttrium silicate SPA beads (Habersham®) are mixed with an aliquot of membrane in binding buffer (50 mM Tris, 120 mM sodium chloride, 5 mM potassium chloride, 2 mM calcium dichloride, 10 mM magnesium dichloride) for 15 minutes with mixing. 50 μl of bead/membrane mixture is then added to each well of a 96 well plate, followed by 50 μl of 4 nM 3H-Vasopressin (American Radiolabeled Chemicals). For total binding measurement 100 μl of binding buffer are added to the respective wells, for non-specific binding 100 μl of 8.4 mM cold vasopressin and for compound testing 100 μl of a serial dilution of each compound in 2% dimethyl sulfoxide. The plate is incubated 1 h at room temperature, centrifuged 1 min at 1000 g and counted on a Packard Top-Count. Non-specific binding counts are subtracted from each well and data is normalized to the maximum specific binding set at 100%. To calculate an IC50 the curve is fitted using a non-linear regression model (XLfit) and the Ki is calculated using the Cheng-Prussoff equation.
Take `CC(C)(C)OC(=O)N1Cc2cc(Cl)ccc2-n2c(nnc2[C@H]2CC[C@H](c3ccccn3)CC2)C1` [Example 1, trans-8-Chloro-1-(4-pyridin-2-yl-cyclohexyl)-4H,6H-2,3,5,10b-tetraaza-benzo[e]azulene-5-carboxylic acid tert-butyl ester]: the Ki is 1.91 nM. Next, `Clc1ccc2c(c1)CNCc1nnc([C@H]3CC[C@H](c4ccccn4)CC3)n1-2` [Example 2, trans-8-Chloro-1-(4-pyridin-2-yl-cyclohexyl)-5,6-dihydro-4H-2,3,5,10b-tetraaza-benzo[e]azulene dihydrochloride]: 10 nM; `CN1Cc2cc(Cl)ccc2-n2c(nnc2[C@H]2CC[C@H](c3ccccn3)CC2)C1` [Example 3, trans-8-Chloro-5-methyl-1-(4-pyridin-2-yl-cyclohexyl)-5,6-dihydro-4H-2,3,5,10b-tetraaza-benzo[e]azulene]: 0.794 nM. Next, `Cc1cccc([C@H]2CC[C@H](c3nnc4n3-c3ccc(Cl)cc3CN(C(=O)OC(C)(C)C)C4)CC2)n1` [Example 4, trans-8-Chloro-1-[4-(6-methyl-pyridin-2-yl)-cyclohexyl]-4H,6H-2,3,5,10b-tetraaza-benzo[e]azulene-5-carboxylic acid tert-butyl ester]: 0.2 nM; `Cc1cccc([C@H]2CC[C@H](c3nnc4n3-c3ccc(Cl)cc3CNC4)CC2)n1` [Example 5, trans-8-Chloro-1-[4-(6-methyl-pyridin-2-yl)-cyclohexyl]-5,6-dihydro-4H-2,3,5,10b-tetraaza-benzo[e]azulene]: 13.8 nM. Consider `Cc1cccc([C@H]2CC[C@H](c3nnc4n3-c3ccc(Cl)cc3CN(C)C4)CC2)n1` [Example 6, trans-8-Chloro-1-[4-(6-methyl-pyridin-2-yl)-cyclohexyl]-5-methyl-5,6-dihydro-4H-2,3,5,10b-tetraaza-benzo[e]azulene], for which the Ki is 0.891 nM. For `CCc1cccc([C@H]2CC[C@H](c3nnc4n3-c3ccc(Cl)cc3CN(C(=O)OC(C)(C)C)C4)CC2)n1` [Example 7, trans-8-Chloro-1-[4-(6-ethyl-pyridin-2-yl)-cyclohexyl]-4H,6H-2,3,5,10b-tetraaza-benzo[e]azulene-5-carboxylic acid tert-butyl ester] the value was 1 nM; for `CCc1cccc([C@H]2CC[C@H](c3nnc4n3-c3ccc(Cl)cc3CNC4)CC2)n1` [Example 8, trans-8-Chloro-1-[4-(6-ethyl-pyridin-2-yl)-cyclohexyl]-5,6-dihydro-4H-2,3,5,10b-tetraaza-benzo[e]azulene], 44.7 nM. Consider `CCc1cccc([C@H]2CC[C@H](c3nnc4n3-c3ccc(Cl)cc3CN(C)C4)CC2)n1` [Example 9, trans-8-Chloro-1-[4-(6-ethyl-pyridin-2-yl)-cyclohexyl]-5-methyl-5,6-dihydro-4H-2,3,5,10b-tetraaza-benzo[e]azulene], for which the Ki was 1.1 nM.

Regarding `CC(C)c1cccc([C@H]2CC[C@H](c3nnc4n3-c3ccc(Cl)cc3CN(C(=O)OC(C)(C)C)C4)CC2)n1` [Example 10, trans-8-Chloro-1-[4-(6-isopropyl-pyridin-2-yl)-cyclohexyl]-4H,6H-2,3,5,10b-tetraaza-benzo[e]azulene-5-carboxylic acid tert-butyl ester], the Ki is 2.19 nM.

As for `CC(C)c1cccc([C@H]2CC[C@H](c3nnc4n3-c3ccc(Cl)cc3CNC4)CC2)n1` [Example 11, trans-8-Chloro-1-[4-(6-isopropyl-pyridin-2-yl)-cyclohexyl]-5,6-dihydro-4H-2,3,5,10b-tetraaza-benzo[e]azulene hydrochloride], the Ki is 70.8 nM. For `CC(C)c1cccc([C@H]2CC[C@H](c3nnc4n3-c3ccc(Cl)cc3CN(C)C4)CC2)n1` [Example 12, trans-8-Chloro-1-[4-(6-isopropyl-pyridin-2-yl)-cyclohexyl]-5-methyl-5,6-dihydro-4H-2,3,5,10b-tetraaza-benzo[e]azulene] the value was 8.51 nM; for `COc1cccc([C@H]2CC[C@H](c3nnc4n3-c3ccc(Cl)cc3CN(C(=O)OC(C)(C)C)C4)CC2)n1` [Example 13, trans-8-Chloro-1-[4-(6-methoxy-pyridin-2-yl)-cyclohexyl]-4H,6H-2,3,5,10b-tetraaza-benzoazulene-5-carboxylic acid tert-butyl ester], 0.501 nM. For `COc1cccc([C@H]2CC[C@H](c3nnc4n3-c3ccc(Cl)cc3CNC4)CC2)n1` [Example 14, trans-8-Chloro-1-[4-(6-methoxy-pyridin-2-yl)-cyclohexyl]-5,6-dihydro-4H-2,3,5,10b-tetraaza-benzo[e]azulene] the value was 56.2 nM; for `COc1cccc([C@H]2CC[C@H](c3nnc4n3-c3ccc(Cl)cc3CN(C)C4)CC2)n1` [Example 15, trans-8-Chloro-1-[4-(6-methoxy-pyridin-2-yl)-cyclohexyl]-5-methyl-5,6-dihydro-4H-2,3,5,10b-tetraaza-benzo[e]azulene], 3.31 nM. Consider `CC(C)(C)OC(=O)N1Cc2cc(Cl)ccc2-n2c(nnc2[C@H]2CC[C@H](c3cccc(Cl)n3)CC2)C1` [Example 16, trans-8-Chloro-1-[4-(6-chloro-pyridin-2-yl)-cyclohexyl]-4H,6H-2,3,5,10b-tetraaza-benzoazulene-5-carboxylic acid tert-butyl ester], for which the Ki is 0.302 nM. For `Clc1ccc2c(c1)CNCc1nnc([C@H]3CC[C@H](c4cccc(Cl)n4)CC3)n1-2` [Example 17, trans-8-Chloro-1-[4-(6-chloro-pyridin-2-yl)-cyclohexyl]-5,6-dihydro-4H-2,3,5,10b-tetraaza-benzo[e]azulene] the value was 2.82 nM. Take `CN1Cc2cc(Cl)ccc2-n2c(nnc2[C@H]2CC[C@H](c3cccc(Cl)n3)CC2)C1` [Example 18, trans-8-Chloro-1-[4-(6-chloro-pyridin-2-yl)-cyclohexyl]-5-methyl-5,6-dihydro-4H-2,3,5,10b-tetraaza-benzo[e]azulene]: the Ki was 0.603 nM. With `CC(C)(C)OC(=O)N1Cc2cc(Cl)ccc2-n2c(nnc2[C@H]2CC[C@H](c3cccc(F)n3)CC2)C1` [Example 19, trans-8-Chloro-1-[4-(6-fluoro-pyridin-2-yl)-cyclohexyl]-4H,6H-2,3,5,10b-tetraaza-benzoazulene-5-carboxylic acid tert-butyl ester], the Ki was 0.603 nM. For `Fc1cccc([C@H]2CC[C@H](c3nnc4n3-c3ccc(Cl)cc3CNC4)CC2)n1` [Example 20, trans-8-Chloro-1-[4-(6-fluoro-pyridin-2-yl)-cyclohexyl]-5,6-dihydro-4H-2,3,5,10b-tetraaza-benzo[e]azulene] the value was 16.6 nM. Next, `CN1Cc2cc(Cl)ccc2-n2c(nnc2[C@H]2CC[C@H](c3cccc(F)n3)CC2)C1` [Example 21, trans-8-Chloro-1-[4-(6-fluoro-pyridin-2-yl)-cyclohexyl]-5-methyl-5,6-dihydro-4H-2,3,5,10b-tetraaza-benzo[e]azulene]: 1.82 nM. For `CC(C)(C)OC(=O)N1Cc2cc(Cl)ccc2-n2c(nnc2[C@H]2CC[C@H](c3ccc(F)cn3)CC2)C1` [Example 22, trans-8-Chloro-1-[4-(5-fluoro-pyridin-2-yl)-cyclohexyl]-4H,6H-2,3,5,10b-tetraaza-benzo[e]azulene-5-carboxylic acid tert-butyl ester] the value was 0.302 nM; for `Fc1ccc([C@H]2CC[C@H](c3nnc4n3-c3ccc(Cl)cc3CNC4)CC2)nc1` [Example 23, trans-8-Chloro-1-[4-(5-fluoro-pyridin-2-yl)-cyclohexyl]-5,6-dihydro-4H-2,3,5,10b-tetraaza-benzo[e]azulene dihydrochloride], 7.24 nM. `CN1Cc2cc(Cl)ccc2-n2c(nnc2[C@H]2CC[C@H](c3ccc(F)cn3)CC2)C1` [Example 24, trans-8-Chloro-1-[4-(5-fluoro-pyridin-2-yl)-cyclohexyl]-5-methyl-5,6-dihydro-4H-2,3,5,10b-tetraaza-benzo[e]azulene]: the Ki is 1 nM. For the compound `CC(C)(C)OC(=O)N1Cc2cc(Cl)ccc2-n2c(nnc2[C@H]2CC[C@H](c3cc(Cl)ccn3)CC2)C1` [Example 25, trans-8-Chloro-1-[4-(4-chloro-pyridin-2-yl)-cyclohexyl]-4H,6H-2,3,5,10b-tetraaza-benzo[e]azulene-5-carboxylic acid tert-butyl ester], the Ki was 0.427 nM. As to `Clc1ccc2c(c1)CNCc1nnc([C@H]3CC[C@H](c4cc(Cl)ccn4)CC3)n1-2` [Example 26, trans-8-Chloro-1-[4-(4-chloro-pyridin-2-yl)-cyclohexyl]-5,6-dihydro-4H-2,3,5,10b-tetraaza-benzo[e]azulene], the Ki is 1 nM.
